The nature of series [1]: MTT cytotoxicity assay, WI-38 normal cells. In kind it is cell-based. The settings on record: human, WI-38 lung fibroblasts (normal cells), WI-38, 72 h incubation, MTT, n = 3 (Table 3). The text has this:
(§1) The cytotoxicity of the test compounds was studied using the MTT assay against a number of cell lines: CT-26 murine colon carcinoma, 4T1 murine mammary carcinoma, MDA-MB-231 human breast adenocarcinoma, COLO201 human colorectal adenocarcinoma, HepG2 human hepatocellular carcinoma, A549 human non-small-cell lung carcinoma, SK-BR-3 human breast adenocarcinoma, SNU-1 human gastric carcinoma, Jurkat human acute T-lymphoblastic leukemia, and WI-38 human lung fibroblasts (normal cells). Doxorubicin (Dox) was used as a reference drug. Cells were incubated with test compounds for 72 h.
(§2) Cells were seeded in flat-bottomed 96-well plates at 10,000 cells per well (for A549, SNU-1, WI-38, CT-26, MDA-MB-231, 4T1, and HepG2 cells) or 20,000 cells per well (for SK-BR-3, Jurkat, and COLO201 cells) and cultivated in complete culture mediums (for composition of each medium, see the Supplementary Materials, Table S1) in a CO2 incubator at 37 °C. At the first stage of this study, the test compounds dissolved in DMSO were added to the wells with cells at final concentrations from 1 × 10^–4 to 1 × 10^–10 mol/L (A549, SK-BR-3, SNU-1, Jurkat, and WI-38) or 1 × 10^–3 to 1 × 10^–8 mol/L (CT-26, MDA-MB-231, 4T1, COLO201, and HepG2); DMSO concentration in the wells was finally 1%. A complete cultural medium and DMSO were added to the control wells at the same concentration as in the experimental wells; 0.1% Triton X-100 solution (10 µL) was added to the corresponding wells as a non-specific positive control. After adding the test compounds, the cells were incubated for 72 h in an atmosphere containing 5% CO2. After that, the nutrient medium was removed from each well (in the case of SK-BR-3, Jurkat, and COLO201, plates were pre-centrifuged at 1500 rpm for 6 min). A solution of the commercial anticancer agent Doxorubicin (Dox, Sigma-Aldrich, St. Louis, MO, USA) in DMSO was used as a reference drug. Then, 150 µL of a complete medium with the MTT reagent (PanEco, Moscow, Russia) at a concentration of 0.5 mg/mL was added and incubated for 2 h. Formazan crystals were dissolved in DMSO (200 µL) and the absorbance in the wells was measured at 540 nm and a reference wavelength of 650 nm (Sunrise, Tecan, Groding, Austria). Experiments were performed in three parallel runs. Cell viability after incubation in the presence of test compounds was calculated in relation to cell viability in the control wells according to the Formula (1):Cell viability (%) = (Aexp/Ac) × 100,(1) where Aexp is the optical density of solutions in the wells containing test compounds; Ac is the optical density of solutions in control wells without test compounds. For detailed information on cell viability of various cell lines, see the Supplementary Materials, Figures S21–S26.
(§3) At the second stage of this study, in order to more accurately calculate the CC50 (the half maximal inhibitory concentration), the cytotoxic effect of test compounds was evaluated at concentrations close to CC50 found at the first stage. The study of the cytotoxic activity of each substance towards the cells of each line was carried out in triplicate; the mean value was used to calculate CC50. The CC50 values were determined by non-linear regression analysis using Graph-Pad Prism7.
A general note: Formazan colour is commonly taken as a measure of viable cells.

Series [2] relates to A549 human non-small-cell lung carcinoma. The series can be described thus: MTT cytotoxicity assay, A549. In kind it is cell-based. The note with it: Homo sapiens, A549, 72 h, A549, 72 h incubation, MTT, n = 3 (Table 3).
Description: as §1, §2, §3

Series [3] deals with SK-BR-3 human breast adenocarcinoma. The series can be described thus: MTT cytotoxicity assay, SK-BR-3. In kind it is cell-based. The note with it: Homo sapiens, SK-BR-3, 72 h, SK-BR-3, 72 h incubation, MTT, n = 3 (Table 3).
Description: as §1, §2, §3

Series [4] relates to SNU-1 human gastric carcinoma. The series can be described thus: MTT cytotoxicity assay, SNU-1. The settings on record: Homo sapiens, SNU1, 72 h, SNU-1, 72 h incubation, MTT, n = 3 (Table 3). In kind it is cell-based.
Description: as §1, §2, §3

In series [5] the test system is Jurkat human acute T-lymphoblastic leukemia. The experiment in a line: MTT cytotoxicity assay, Jurkat. The class given is cell-based. The settings on record: Homo sapiens, Jurkat, 72 h, 72 h incubation, MTT, n = 3 (Table 3).
Description: as §1, §2, §3

In series [6] the test system is A549, SK-BR-3, SNU-1, Jurkat, WI-38 cell lines. The series can be described thus: MTT cytotoxicity assay, cell line panel (result in words). The settings on record: 72 h. In kind it is cell-based, human.
Description: as §1
The cytotoxicity of compounds 2a–c, 6, 7, and 9 was also studied using the MTT assay against a number of tumor cell lines: A549, SK-BR-3, SNU-1, Jurkat, as well as normal fibroblasts WI-38 (Table 3).
as §2, §3

Series [7] is described as follows: MTT cytotoxicity assay, Jurkat. The note with it: human, CC50 of WI-38 divided by CC50 of Jurkat (Table 3); read-out: SCI (selective cytotoxicity index). In kind it is cell-based, human.
Description: as §1, §2, §3

Series [8] can be described thus: MTT cytotoxicity assay, A549. The class given is cell-based, human. The settings on record: human, CC50 of WI-38 divided by CC50 of A549 (Table 3); read-out: SCI (selective cytotoxicity index).
Description: as §1, §2, §3

A short description of series [9]: MTT cytotoxicity assay, SK-BR-3. In kind it is cell-based, human. The note with it: human, CC50 of WI-38 divided by CC50 of SK-BR-3 (Table 3); read-out: SCI (selective cytotoxicity index).
Description: as §1, §2, §3

Series [10] can be described thus: MTT cytotoxicity assay, SNU-1. In kind it is cell-based, human. The note with it: human, CC50 of WI-38 divided by CC50 of SNU-1 (Table 3); read-out: SCI (selective cytotoxicity index).
Description: as §1, §2, §3

This note sets out measurements from publication PMC9962735, “Synthesis and Cytotoxic Activity of the Derivatives of N-(Purin-6-yl)aminopolymethylene Carboxylic Acids and Related Compounds” (Molecules, 2023).

For orientation: CC50 means the concentration that lowers cell viability or growth by half. On to `CC1COc2c(ccc(F)c2F)N1C(=O)CNc1ncnc2[nH]cnc12` (stereo not drawn) [Compound 1a], for which the CC50 at 72 h in [1] is more than 100 µM. The CC50 in series [2], in series [3], in [4] and in series [5] was more than 100 µM throughout. Further, the “cytotoxic activity (in words)” value in series [6] was “non-cytotoxic”.

By melting point is commonly meant the temperature, or range, at which the solid turns liquid. `C[C@H]1COc2c(ccc(F)c2F)N1C(=O)CCCCCCCCC(=O)N1c2ccc(F)c(F)c2OC[C@@H]1C` (hydrate or solvate) [(S)-9, 1,10-bis((S)-7,8-Difluoro-3-methyl-2H-benzo[b][1,4]oxazin-4(3H)-yl)decan-1,10-dione] returned a melting point of 41 to 42 °C.

The compound `O=C(O)CCCCCCCCCCNc1ncnc2nc[nH]c12` [Compound 2a, N-(Purin-6-yl)-11-aminoundecanoic Acid] came in with a melting point of 172 to 174 °C. For the same compound, in series [1], the half-maximal cytotoxic concentration (CC50) at 72 h was more than 100 µM. In addition, the CC50 in [2] was more than 100 µM. Besides, the CC50 in series [3] is more than 100 µM. In series [4], this compound returned a CC50 of more than 100 µM. Also, the selectivity ratio at 72 h in series [7] is not below 1.7. This compound registered a CC50 in series [5] of 59 µM. In series [6], the “cytotoxic activity (in words)” value is recorded as “cytotoxic only against the Jurkat cell line”.

Compound `CC(=O)OCCOCn1cnc2c(NCCCCCCCCCCC(=O)N3c4ccc(F)c(F)c4OCC3C)ncnc21` (stereo not drawn) [Compound 6, {11-[9-(2-Acetoxyethoxy)methylpurin-6-yl]aminoundecanoyl]-7,8-difluoro-3,4-dihydro-3-methyl-2H-[1,4]benzoxazine] had a CC50 at 72 h in [1] of 30 µM. For the same compound, the selectivity ratio at 72 h in series [8] came out at 2; in series [9], 0.08; in series [10], 5.4; in series [7], 3. Moreover, the CC50 in series [2] was determined as 15 µM; in series [3], 370 µM; in series [4] it was 5.6 µM; in series [5], 10 µM. The “cytotoxic activity (in words)” value in series [6] was “approximately the same cytotoxicity as the most active compound 1d”.

Compound `O=C(O)CCCCCCCCCCCCCCNc1ncnc2nc[nH]c12` [Compound 2c, N-(Purin-6-yl)-15-aminopentadecanoic Acid] had a melting point of 198 to 199 °C. In addition, in [1], the CC50 at 72 h is more than 100 µM. The same compound yielded a CC50 in series [2] of more than 100 µM. Also, in [3], the 50% cytotoxic concentration (CC50) was more than 100 µM. In series [4], this compound returned a CC50 of more than 100 µM. This compound also showed a 50% cytotoxic concentration (CC50) in series [5] of more than 100 µM. The “cytotoxic activity (in words)” value in series [6] was “no cytotoxic activity”.

Consider `COc1cccc2c1C(=O)c1c(O)c3c(c(O)c1C2=O)C[C@@](O)(C(=O)CO)C[C@@H]3O[C@H]1C[C@H](N)[C@H](O)[C@H](C)O1` [Dox, Doxorubicin, reference compound], for which the CC50 at 72 h in series [1] came out at 0.23 µM. In addition, the selectivity ratio at 72 h in [8] came out at 1; in series [9], 0.15; in series [10] it was 1.6; in series [7], 1.9. Besides, the CC50 was 0.22 µM in [2], 1.5 µM in series [3], 0.14 µM in series [4] and 0.12 µM in series [5].

`C[C@H]1COc2c(ccc(F)c2F)N1C(=O)CCCCCCCCC(=O)N1c2ccc(F)c(F)c2OC[C@@H]1C` [(S)-9, 1,10-bis((S)-7,8-Difluoro-3-methyl-2H-benzo[b][1,4]oxazin-4(3H)-yl)decan-1,10-dione]: in series [1], the CC50 at 72 h was more than 100 µM. In addition, the half-maximal cytotoxic concentration (CC50) in [2], in series [3], in [4] and in series [5] was more than 100 µM each time. Besides, the “cytotoxic activity (in words)” value in series [6] was “did not exhibit cytotoxic activity”.

As to `O=C(O)CCCCCCCCCCCNc1ncnc2nc[nH]c12` [Compound 2b, N-(Purin-6-yl)-12-aminododecanoic Acid], the CC50 at 72 h in [1] is more than 100 µM. Besides, the CC50 in [2] is more than 100 µM; in series [3], more than 100 µM; in [4] it was more than 100 µM; in series [5], 49 µM. The “cytotoxic activity (in words)” value in [6] is “cytotoxic only against the Jurkat cell line”.

In series [1], `CC1COc2c(ccc(F)c2F)N1C(=O)CCCCCCCCC(=O)N1c2ccc(F)c(F)c2OCC1C` (stereo not drawn) [Compound 9, 1,10-bis(-7,8-Difluoro-3-methyl-2H-benzo[b][1,4]oxazin-4(3H)-yl)decan-1,10-dione] gave a half-maximal cytotoxic concentration (CC50) at 72 h of more than 100 µM. Besides, the half-maximal cytotoxic concentration (CC50) in [2], in [3], in series [4] and in [5] was more than 100 µM in each case. The “cytotoxic activity (in words)” value in series [6] is “did not exhibit cytotoxic activity”.

Take `CC1COc2c(ccc(F)c2F)N1C(=O)CCCCCCCCC(=O)N1c2ccc(F)c(F)c2OCC1C` (stereo not drawn) (hydrate or solvate) [Compound 9, 1,10-bis(-7,8-Difluoro-3-methyl-2H-benzo[b][1,4]oxazin-4(3H)-yl)decan-1,10-dione]: the melting point fell in the range of 103 to 104 °C.
